Results taken from patent publication US20230026232A1, “AHR INHIBITORS AND USES THEREOF” (Ikena Oncology, Inc., priority 2019, published 2023).
≈ marks a conversion by molar mass, not a printed value. Entries after “also recorded” stand apart in the source; their conditions may differ.

Key:
[1] = system: other receptors, transporters, and kinases; assay: Selectivity for AHR over other receptors, transporters, and kinases
Description: (§1) Compound A is a selective AHR antagonist being developed as an orally administered therapeutic. […] Compound A inhibits CYP1A1 and interleukin (IL)-22 gene expression and leads to an increase in pro-inflammatory cytokines, such as IL-2 and IL-9.

[2] = Solubility of bulk API in biorelevant media by HPLC; format: physicochemical; settings: thermodynamic from solid, up to 24 hours
Procedure: Solubility of bulk APIs was conducted in various biorelevant media. Small amounts of API were suspended in media and continuously agitated at room temperature for a period up to 24 hours. Samples were centrifuged to pellet out undissolved solids and the resulting supernatant was sampled, diluted, and analyzed by HPLC utilizing the short-assay method sued for dissolution sample analysis. Both forms show poor gastric solubility, with the maleate salt displaying an order of magnitude larger solubility in intestinal media.

human T cell = assay: Human T cell assays: pro-inflammatory cytokines; format: cell-based
Description: as §1

AHR [3] = target: T1, AHR (Mus musculus, UniProt P30561); assay: AHR-dependent Cyp1A1 expression (P450-Glo) in mouse Hepa1.6 cells stimulated with VAF347; format: cell-based; settings: read-out: IC50, AHR-dependent expression of Cyp1A1; murine Hepa1.6 cells, 2 μM VAF347, 24 hours, average
T1 sequence (P30561 10-805): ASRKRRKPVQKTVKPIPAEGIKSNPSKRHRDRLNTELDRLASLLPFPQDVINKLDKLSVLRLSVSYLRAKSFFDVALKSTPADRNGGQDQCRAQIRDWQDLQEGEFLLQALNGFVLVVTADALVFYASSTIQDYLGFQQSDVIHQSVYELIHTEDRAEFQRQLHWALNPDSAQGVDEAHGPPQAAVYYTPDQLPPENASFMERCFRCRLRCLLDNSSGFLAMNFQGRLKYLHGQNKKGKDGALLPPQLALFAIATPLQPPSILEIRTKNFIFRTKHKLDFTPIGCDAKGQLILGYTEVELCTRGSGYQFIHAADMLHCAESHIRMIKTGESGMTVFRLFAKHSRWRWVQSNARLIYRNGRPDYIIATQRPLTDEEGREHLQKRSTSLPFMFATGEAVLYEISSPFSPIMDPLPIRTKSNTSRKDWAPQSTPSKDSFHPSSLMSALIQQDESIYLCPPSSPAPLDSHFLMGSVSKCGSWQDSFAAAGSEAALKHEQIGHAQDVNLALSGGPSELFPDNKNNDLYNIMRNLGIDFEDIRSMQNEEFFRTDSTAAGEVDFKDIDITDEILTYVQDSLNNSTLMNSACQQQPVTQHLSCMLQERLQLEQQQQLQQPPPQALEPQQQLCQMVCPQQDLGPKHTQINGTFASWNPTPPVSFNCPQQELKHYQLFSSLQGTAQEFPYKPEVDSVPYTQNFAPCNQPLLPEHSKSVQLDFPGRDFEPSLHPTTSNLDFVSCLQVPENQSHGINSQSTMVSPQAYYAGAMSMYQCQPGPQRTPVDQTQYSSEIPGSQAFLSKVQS
Procedure: The ability of Compound A to inhibit AHR-dependent Cyp1A1 gene expression was examined in vitro by measuring changes in Cyp1A1 enzymatic activity in 2 rodent hepatoma cell lines following AHR agonist stimulation. Mouse Hepa1.6 and rat H411E hepatoma cells were treated with AHR agonists VAF347 and L-kynurenine, respectively, in the presence of Compound A at multiple concentrations for 24 hours. The inhibition of Cyp1A1 expression was subsequently evaluated by measuring Cyp1A1 enzyme activity using P450-Glo assays.

AHR [4] = assay: Pharmacodynamics: VAG539-induced CYP1A1 mRNA in mouse liver and spleen; format: in vivo, C57BL/6 mice; settings: 25 mg/kg Compound A oral
Procedure: The pharmacodynamic effect of Compound A on the inhibition of AHR-dependent gene expression in liver and spleen was examined in C57BL/6 mice.
Mice were sacrificed at 4 and 10 hours post-dose and RNA was extracted and gene expression of CYP1A1 and the housekeeping gene mouse glyceraldehyde 3-phosphate dehydrogenase were quantified. CYP1A1 mRNA expression levels for each dose group for liver and spleen tissues were normalized to the control group.

[5] = Nonclinical safety studies incl. 28-day GLP study in monkeys; format: in vivo
Description: (§2) The nonclinical safety of Compound A has been evaluated in a series of pharmacological, single-dose and repeated-dose toxicological studies in rodent and non-rodent species including 28-day Good Laboratory Practice (GLP) studies in rat and monkeys. […] All changes were resolved or resolving after 2 weeks of dosing cessation, except for the testicular changes in rats. The nonclinical safety assessment from these studies supports clinical evaluation of Compound A in humans. The initial planned dose of Compound A for this study is 200 mg once daily (QD), based on evaluation of the Compound A nonclinical safety data.
During dose escalation, a minimum of 3 patients are required at each dose. Depending on accrual rate and occurrence of DLTs, 3, 4, 5, or 6 patients may be enrolled at each new dose until the last of those patients completes the 21-day DLT assessment period. Based on the mTPI-2 design, the number of patients who are enrolled at a dose but are not yet fully evaluable for DLT assessment may not exceed the number of remaining patients who are at risk of developing a DLT before the dose would be considered unacceptably toxic. In general, 3 to 14 patients can be enrolled at a given dose level. Administration of Compound A to the first 2 patients in each new dose cohort is staggered by a minimum of 15 hours.

AHR [6] = assay: AHR activity in human and rodent cell lines (summary); format: cell-based
Description: as §1

[7] = Nonclinical safety studies incl. 28-day GLP study in rat; format: in vivo; settings: rats
Description: as §2

[8] = Phase 1 dose-escalation study: interim cohort pharmacokinetics; format: in vivo, human; settings: Cycle 2 Day 1 (C2D1)
Procedure: Serial blood samples are obtained to characterize the plasma PK of Compound A and its major active metabolites. The initial sampling strategy is based on the predicted human PK of this compound. If in the course of evaluating the PK, it is determined that an alternative sampling scheme would be more informative, then that alternative sampling scheme may be implemented if the total amount of blood and blood draws obtained for PK is not increased. Moreover, the total number of samples may be decreased at any time if the initial sampling scheme is considered unnecessarily intensive.
Interim cohort pharmacokinetics were assessed on parent (Compound A) and two active metabolites (Compound B and Compound C). […] Compound B metabolite ratio is increased on C2D1 in cohorts above 200 mg dosages. […] Without wishing to be bound or limited by theory, elimination rate limited kinetics likely contributing to the accumulation of Compound B through on-target inhibition of CYP1A1.

SMILES: CC(C)c1cnn2c(N[C@@H]3CCc4[nH]c5ccccc5c4C3)nc(-c3cncc(F)c3)nc12 [Compound A, (R)—N-(2-(5-fluoropyridin-3-yl)-8-isopropylpyrazolo[1,5-a][1,3,5]triazin-4-yl)-2,3,4,9-tetrahydro-1H-carbazol-3-amine]
- selectivity for AHR over other receptors, transporters, and kinases [1]: highly selective
- solubility ([2]; simulated gastric fluid, 0.1N HCl, room temperature): < 0.5 µg/mL
- solubility ([2]; FaSSIF, pH 6.8, room temperature): 1.4 µg/mL (≈ 3.17 µM)
- pro-inflammatory cytokines, such as IL-2 and IL-9 (human T cell): increase
- IC50 (AHR [3]): 36 nM
- inhibition of CYP1A1 mRNA increases induced by VAG539 in the liver (AHR [4]; with 30 mg/kg VAG539): Complete inhibition
- inhibition of CYP1A1 mRNA induction in the spleen (AHR [4]; with 30 mg/kg VAG539, at 4 hours): complete inhibition
- noteworthy findings in nonclinical safety studies ([5]; monkey): decreased thymus weights and cortical lymphocytes
- AUC ([5]; monkey, primates, plasma, read-out: AUC where QTc increases are noted): 188 µg·h/mL
- Cmax ([5]; monkey, primates, plasma, read-out: Cmax where QTc increases are noted): 11200 ng/mL
- QTc prolongation ([5]; monkeys): up to 11%
- IC50 (AHR [6]): 35 to 150 nM
- noteworthy findings in nonclinical safety studies [7]: non-glandular stomach ulceration and edema; also recorded: seminiferous tubule degeneration and debris in the epididymis lumen
- dose proportionality of PK [8]: greater than dose proportional
